Assay results as given in the NIST ThermoML archive (doi:10.1021/je900909s).
Several values for one entry are separate records, joined by “and”; a condition that tells them apart may be missing. Equal values may be shown once. ± gives the expanded uncertainty stated by the source.

Test: cn = amount concentration of the nth substance listed, in mol/dm3
Settings: 101 kPa, Liquid, c1 = 2; for speed of sound: Frequency=4 MHz, Linear variable-path acoustic interferometer

Row | SMILES | speed of sound (298.15 K) | mass density (298.15 K) | speed of sound (303.15 K) | mass density (303.15 K) | speed of sound (308.15 K) | mass density (308.15 K) | speed of sound (313.15 K) | mass density (313.15 K) | speed of sound (318.15 K) | mass density (318.15 K) | speed of sound (323.15 K) | mass density (323.15 K) | speed of sound (328.15 K) | mass density (328.15 K)
1 | [Cl-].[Na+] [sodium chloride] + O | 1614.3 ± 2.1 m/s | 1075 ± 1.4 kg/m3 | 1620.9 ± 2.1 m/s | 1073 ± 1.5 kg/m3 | 1627.6 ± 2.1 m/s | 1070.7 ± 1.5 kg/m3 | 1633.7 ± 2.1 m/s | 1068.3 ± 1.6 kg/m3 | 1637.3 ± 2.1 m/s | 1065.7 ± 1.7 kg/m3 | 1640.5 ± 2.2 m/s | 1063.1 ± 1.7 kg/m3 | 1643.7 ± 2.2 m/s and 1642.7 ± 2.2 m/s | 1060.2 ± 1.8 kg/m3
2 | O=[N+]([O-])[O-].[Na+] [sodium nitrate] + O | 1581.4 ± 2.1 m/s | 1104.2 ± 1.5 kg/m3 | 1588.6 ± 2.1 m/s | 1101.7 ± 1.5 kg/m3 | 1593.2 ± 2.1 m/s | 1099 ± 1.6 kg/m3 | 1596.3 ± 2.1 m/s | 1096.3 ± 1.7 kg/m3 | 1600.1 ± 2.1 m/s | 1093.4 ± 1.7 kg/m3 | 1604.3 ± 2.1 m/s | 1090.4 ± 1.8 kg/m3 | 1607.1 ± 2.1 m/s | 1087.2 ± 1.8 kg/m3
